A word on the GI50: it is the concentration giving 50% growth inhibition. As a reminder, the TGI is the concentration at which net growth stops. Read a high TGI as lower sensitivity of the cells.

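The compound was tested at five concentrations on cells cultured in 96-well plates, with a 48-hour exposure period. Here, GI50 denotes the concentration required for 50% inhibition of growth. TGI denotes the concentration required for complete inhibition of growth.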 Bounds are passed on as bounds.

Among the test systems are CAKI-1 renal; CCRF-CEM leukemia; HOP-92 NSCLC; SK-MEL-5 melanoma; COLO 205 colon; UO-31 renal; SNB-75 CNS; MDA-MB-231 breast; RPMI-8226 leukemia; HT29 colon.
Common to all, as to experiment: DTP human tumour cell line panel, 48 h

In the case of `O=C(Cc1ccc(/C=C/C(=O)c2ncc[nH]2)cc1)Nc1cc(F)c(F)c(F)c1`, the GI50 with CAKI-1 renal is 3.68 µM; in the assay on CCRF-CEM leukemia, 2.79 µM; with HOP-92 NSCLC, 3.53 µM; in the assay with SK-MEL-5 melanoma, 4.18 µM; in the assay with COLO 205 colon, 4.08 µM; in the assay with UO-31 renal, 3.36 µM. Moreover, the GI50 in the assay with SNB-75 CNS was 1.98 µM; in the assay on MDA-MB-231 breast, 6.45 µM; in the assay with RPMI-8226 leukemia, 0.665 µM; in the assay on HT29 colon it was 0.861 µM. Besides, the total growth inhibition concentration (TGI) in the assay on CAKI-1 renal came out at 7.05 µM; with CCRF-CEM leukemia, 13.9 µM; with HOP-92 NSCLC, 8 µM; with SK-MEL-5 melanoma it was 8.19 µM; in the assay on COLO 205 colon, 9.4 µM; in the assay with UO-31 renal it was 6.56 µM. Moreover, the TGI in the assay on SNB-75 CNS was over 25 µM; in the assay on MDA-MB-231 breast it was 21.1 µM; in the assay on RPMI-8226 leukemia it was 1.79 µM; with HT29 colon, 4.17 µM.

`C=C1CC[C@@H]2[C@](C)(COC(C)=O)[C@H](OC(C)=O)CC[C@@]2(C)[C@@H]1CC(Sc1ccccc1)C1=CCOC1=O` (stereo not given in full): the GI50 was 2.77 µM in the assay with CAKI-1 renal; 0.266 µM in the assay on CCRF-CEM leukemia; 2.71 µM with HOP-92 NSCLC; 1.42 µM in the assay with SK-MEL-5 melanoma; 1.49 µM in the assay on COLO 205 colon; 1.2 µM in the assay with UO-31 renal. Also, the GI50 with SNB-75 CNS is 1.3 µM; with MDA-MB-231 breast it was 2.47 µM; in the assay on RPMI-8226 leukemia, 0.343 µM; in the assay on HT29 colon, 1.77 µM. Further, the TGI in the assay with CAKI-1 renal came out at 11.5 µM; in the assay with CCRF-CEM leukemia it was 1.19 µM; with HOP-92 NSCLC, 8.71 µM; with SK-MEL-5 melanoma, 2.82 µM; in the assay with COLO 205 colon it was 3.98 µM; in the assay with UO-31 renal, 2.53 µM. The TGI in the assay on SNB-75 CNS stood at 2.9 µM; with MDA-MB-231 breast, 6.3 µM; in the assay on RPMI-8226 leukemia, 2.73 µM; with HT29 colon it was 3.77 µM.

With `CC(O)CCC(=O)c1ccoc1` (stereo not given), the TGI in the assay on CAKI-1 renal is 3930 µM; in the assay on CCRF-CEM leukemia, over 9360 µM; with HOP-92 NSCLC, 8000 µM; in the assay with SK-MEL-5 melanoma it was 8030 µM; in the assay with COLO 205 colon, over 8250 µM; in the assay with UO-31 renal, 9120 µM. The concentration for total growth inhibition (TGI) in the assay with SNB-75 CNS is 9650 µM; in the assay on MDA-MB-231 breast, over 10000 µM; in the assay with RPMI-8226 leukemia, 7900 µM; in the assay on HT29 colon, over 10000 µM.

For the molecule `COc1ccc(CN2C(=O)/C(=C\C(=O)c3ccc(OCCN4CCCCC4)cc3)c3ccccc32)cc1`, the GI50 was 5.09 µM with CAKI-1 renal; 3.01 µM in the assay on CCRF-CEM leukemia; 1.64 µM in the assay with HOP-92 NSCLC; 11 µM in the assay on SK-MEL-5 melanoma; 1.86 µM in the assay on COLO 205 colon; 1.57 µM with UO-31 renal. The GI50 in the assay on SNB-75 CNS was 12.8 µM; in the assay with MDA-MB-231 breast it was 2.15 µM; with RPMI-8226 leukemia it was 2.31 µM; in the assay on HT29 colon, 1.8 µM. Also, the TGI with CAKI-1 renal was found to be 18.1 µM; with CCRF-CEM leukemia it was 14 µM; with HOP-92 NSCLC, 3.89 µM; in the assay on SK-MEL-5 melanoma, 23.5 µM; in the assay on COLO 205 colon it was 3.97 µM; in the assay on UO-31 renal, 2.92 µM. In addition, the TGI with SNB-75 CNS was determined as 27.6 µM; with MDA-MB-231 breast, 4.56 µM; in the assay on RPMI-8226 leukemia, 5.62 µM; in the assay on HT29 colon, 3.57 µM.

As for `CCCCCCCCCCCCCC1=NC(C)(C)CN1C(C)C`, the GI50 with CAKI-1 renal was 1.36 µM; in the assay on CCRF-CEM leukemia it was 1.54 µM; in the assay on HOP-92 NSCLC, 0.655 µM; in the assay on SK-MEL-5 melanoma it was 1.67 µM; in the assay with COLO 205 colon, 1.41 µM; in the assay with UO-31 renal, 1.39 µM. In addition, the GI50 is 1.64 µM with SNB-75 CNS, 1.52 µM in the assay on MDA-MB-231 breast, 1.2 µM in the assay on RPMI-8226 leukemia and 0.422 µM with HT29 colon. Moreover, the TGI in the assay on CAKI-1 renal was determined as 2.84 µM; with CCRF-CEM leukemia, 3.43 µM; with HOP-92 NSCLC, 2.19 µM; in the assay on SK-MEL-5 melanoma it was 3.03 µM; in the assay on COLO 205 colon, 2.71 µM; in the assay on UO-31 renal it was 2.69 µM. The TGI with SNB-75 CNS was 3 µM; with MDA-MB-231 breast, 2.89 µM; with RPMI-8226 leukemia it was 3.03 µM; in the assay with HT29 colon it was 1.47 µM.

For `Cc1cc(I)cc(CN(C)CCCN2CCCCCCC2)c1O`, the GI50 in the assay with CAKI-1 renal is 13.8 µM; in the assay with CCRF-CEM leukemia, 6.22 µM; with HOP-92 NSCLC, 11.6 µM; with SK-MEL-5 melanoma, 6.94 µM; in the assay on COLO 205 colon, 17.4 µM; in the assay on UO-31 renal it was 11.8 µM. In addition, the GI50 in the assay on SNB-75 CNS was 15.4 µM; in the assay with MDA-MB-231 breast it was 14.9 µM; in the assay with RPMI-8226 leukemia, 7.9 µM; in the assay with HT29 colon it was 6.26 µM. In addition, the concentration for total growth inhibition (TGI) in the assay with CAKI-1 renal amounted to 28 µM; with CCRF-CEM leukemia it was 21.9 µM; in the assay on HOP-92 NSCLC, 29.8 µM; with SK-MEL-5 melanoma, 19.4 µM; in the assay on COLO 205 colon it was 37.1 µM; in the assay with UO-31 renal it was 26.2 µM. Besides, the TGI with SNB-75 CNS is 30.2 µM; with MDA-MB-231 breast, 29.6 µM; in the assay on RPMI-8226 leukemia, 24.2 µM; with HT29 colon, 21.1 µM.

Turning to `O=C(CNc1ccc(Cl)cc1)Nc1ccc(-c2nc3ccccc3s2)cc1`, the GI50 in the assay on CAKI-1 renal was 6.8 µM; in the assay with CCRF-CEM leukemia it was 0.859 µM; in the assay on HOP-92 NSCLC, 1.91 µM; in the assay with SK-MEL-5 melanoma, 2 µM; with COLO 205 colon, 3.49 µM; in the assay with UO-31 renal, 4.03 µM. The GI50 with SNB-75 CNS was 3.39 µM; in the assay on MDA-MB-231 breast it was 3.67 µM; with RPMI-8226 leukemia, 2.82 µM; with HT29 colon, 3.8 µM. Also, the TGI with CAKI-1 renal is 20 µM; in the assay with CCRF-CEM leukemia, over 100 µM; with HOP-92 NSCLC, 5.17 µM; with SK-MEL-5 melanoma it was 5.42 µM; with COLO 205 colon, 10.2 µM; with UO-31 renal, 15.4 µM. Besides, the TGI was 14.8 µM in the assay with SNB-75 CNS, 14.7 µM in the assay on MDA-MB-231 breast, 16 µM with RPMI-8226 leukemia and 11.4 µM in the assay with HT29 colon.

With `CC(C)=CCNc1ncnc2c1ncn2C1OC(CO)C(O)C1O` (stereo not given), the GI50 in the assay with CAKI-1 renal was 0.721 µM; in the assay with CCRF-CEM leukemia it was 0.456 µM; in the assay on HOP-92 NSCLC, 1.14 µM; in the assay with SK-MEL-5 melanoma, 5.74 µM; with COLO 205 colon, 3.96 µM; with UO-31 renal, 6.94 µM. Besides, the GI50 in the assay on SNB-75 CNS is 2.52 µM; in the assay with MDA-MB-231 breast, 1.52 µM; in the assay with RPMI-8226 leukemia, 2.91 µM; with HT29 colon, 1.34 µM. Further, the TGI in the assay on CAKI-1 renal was 4.74 µM; with CCRF-CEM leukemia it was 3.17 µM; in the assay with HOP-92 NSCLC, 3.99 µM; with SK-MEL-5 melanoma it was over 1000 µM; with COLO 205 colon, 550 µM; in the assay with UO-31 renal, 50 µM. The TGI in the assay with SNB-75 CNS was 55.9 µM; in the assay on MDA-MB-231 breast, 9.33 µM; with RPMI-8226 leukemia, 25.2 µM; with HT29 colon, over 1000 µM.

The record behind these values is PubChem BioAssay (NCI).
